In brackets after ≈: the same amount, converted by molar mass.
Legend:
Homo sapiens [1] = organism: Homo sapiens; experiment: Selectivity index, ratio of IC50 for KDR (unknown origin) expressed in BaF3 cells to IC50 for RET V804M mutant (unknown origin) expressed […] cells; assay type: cell-based
[2] = target: Proto-oncogene tyrosine-protein kinase receptor Ret (Homo sapiens, UniProt P07949, V804M)
Homo sapiens [3] = organism: Homo sapiens; experiment: Selectivity index, ratio of IC50 for GST-tagged human RET expressed in baculovirus to IC50 for recombinant N-Terminal GST-tagged human RET V804M mutant (658 to end residues)
Homo sapiens [4] = organism: Homo sapiens; experiment: Selectivity index, ratio of IC50 for RET (unknown origin) expressed in BaF3 cells to IC50 for RET V804M mutant (unknown origin) expressed […] cells; assay type: cell-based
Homo sapiens [5] = organism: Homo sapiens; experiment: Selectivity index, ratio of IC50 for N-terminal His6-tagged recombinant human KDR (790 to end residue) expressed in baculovirus in Sf21 insect cells to IC50 for recombinant N-Terminal GST-tagged human RET V804M mutant (658 to end residues)
[6] = Kinetic solubility of compound; assay type: physicochemical; conditions: read-out: Kinetic_solubility
[7] = Metabolic stability in mouse liver microsomes assessed as intrinsic clearance; assay type: ADME, Microsome; conditions: read-out: CLH
[8] = Efflux ratio of apparent permeability in human Caco2 cells; assay type: ADME, cell-based; conditions: Caco-2
[9] = Apparent permeability in human Caco2 cells; assay type: ADME, cell-based; conditions: Caco-2

Chain of Proto-oncogene tyrosine-protein kinase receptor Ret (P07949 29-1114 V804M limits assumed): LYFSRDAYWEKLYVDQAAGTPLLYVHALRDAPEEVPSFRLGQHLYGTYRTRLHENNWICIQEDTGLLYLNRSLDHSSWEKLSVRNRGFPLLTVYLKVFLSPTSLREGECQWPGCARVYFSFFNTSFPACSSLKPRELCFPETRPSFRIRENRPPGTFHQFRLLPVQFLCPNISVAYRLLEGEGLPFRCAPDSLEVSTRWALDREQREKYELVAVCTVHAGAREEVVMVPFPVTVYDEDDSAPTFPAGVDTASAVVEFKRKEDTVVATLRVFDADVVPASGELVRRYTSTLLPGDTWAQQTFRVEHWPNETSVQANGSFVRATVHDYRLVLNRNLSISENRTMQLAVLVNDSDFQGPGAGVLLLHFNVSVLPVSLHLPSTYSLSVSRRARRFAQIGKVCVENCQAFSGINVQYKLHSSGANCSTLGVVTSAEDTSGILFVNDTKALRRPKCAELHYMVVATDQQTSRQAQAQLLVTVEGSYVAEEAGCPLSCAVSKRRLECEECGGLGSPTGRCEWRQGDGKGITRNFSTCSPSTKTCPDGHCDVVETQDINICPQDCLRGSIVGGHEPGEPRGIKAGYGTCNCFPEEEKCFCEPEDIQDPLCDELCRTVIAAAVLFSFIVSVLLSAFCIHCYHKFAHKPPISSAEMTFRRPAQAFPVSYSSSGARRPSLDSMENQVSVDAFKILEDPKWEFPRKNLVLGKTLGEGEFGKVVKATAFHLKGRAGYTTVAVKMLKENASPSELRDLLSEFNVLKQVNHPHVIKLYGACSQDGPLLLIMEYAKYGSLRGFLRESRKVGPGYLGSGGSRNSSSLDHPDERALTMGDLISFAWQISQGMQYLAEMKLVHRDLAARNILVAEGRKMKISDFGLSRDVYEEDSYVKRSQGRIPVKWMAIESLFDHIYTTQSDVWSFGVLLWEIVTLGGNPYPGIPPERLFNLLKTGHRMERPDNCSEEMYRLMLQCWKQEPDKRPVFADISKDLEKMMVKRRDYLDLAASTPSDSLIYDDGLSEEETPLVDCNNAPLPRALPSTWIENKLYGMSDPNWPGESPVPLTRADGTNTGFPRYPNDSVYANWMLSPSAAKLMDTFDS

SMILES	Ratio IC50 (Homo sapiens [1])	IC50 [2]	Ratio IC50 (Homo sapiens [3])	Ratio IC50 (Homo sapiens [4])	Ratio IC50 (Homo sapiens [5])	solubility kinetic [6]	microsomal CLint [7]	efflux ratio [8]	Papp [9]
OCCNc1ccn2ncc(-c3ccc4c(c3)OCO4)c2n1	1.5	130 nM	15	1.5	19				
c1ccc(CNc2ccn3ncc(-c4ccc5c(c4)OCO5)c3n2)nc1	7.6	39 nM	14	3.1	100				
c1ccc(CNc2ccn3ncc(-c4ccc5c(c4)OCO5)c3n2)cc1		29000 nM	0.16		2.3				
NS(=O)(=O)c1ccc(-c2cnn3ccc(NCc4ccncc4)nc23)cc1	1	360 nM	1.3	1	220				
CC(=O)Nc1cccc(-c2cnn3ccc(NCc4ccncc4)nc23)c1		1600 nM	4		22				
c1cc(CNc2ccn3ncc(-c4ccc5c(c4)OCO5)c3n2)ccn1	6.2	290 nM	0.64	2.2	27	30 µM (≈ 10.4 µg/mL)			
c1cc(CNc2ccn3ncc(-c4ccc5cn[nH]c5c4)c3n2)ccn1	1.9	300 nM	18	1.9	83				
CN(C)CCNc1ccn2ncc(-c3ccc4c(c3)OCO4)c2n1	13	91 nM	21	9.8	540				
c1cc(Nc2ccn3ncc(-c4ccc5c(c4)OCO5)c3n2)ccn1		63000 nM	2.1		2.1				
NC(=O)c1ccc(-c2cnn3ccc(NCc4cccnc4)nc23)cc1	1.9	51 nM	13	0.85	19				
NC(=O)c1ccc(-c2cnn3ccc(NCc4ccccn4)nc23)cc1	2	44 nM	19	0.9	22				
NC(=O)c1cccc(-c2cnn3ccc(NCc4ccncc4)nc23)c1		4300 nM			8				
CN(C)CCNc1ccn2ncc(-c3ccc(C(N)=O)cc3)c2n1	0.83	350 nM	4.7	0.3	54				
c1cc2c(cc1-c1cnn3ccc(NCC4CCNCC4)nc13)OCO2	2.6	200 nM	1.2	0.85	64				
O=C(O)c1ccc(-c2cnn3ccc(NCc4ccncc4)nc23)cc1		560 nM	1.2		1.8				
c1ccc(-c2cnn3ccc(NCc4ccncc4)nc23)cc1		1140 nM	2.4		0.96				
CN(C)C(=O)c1ccc(-c2cnn3ccc(NCc4ccncc4)nc23)cc1		7600 nM	1.8		3.9				
CN(C)CCCNc1ccn2ncc(-c3ccc4c(c3)OCO4)c2n1	76	19 nM	16	32	410	> 100 µM	62 µL/min/mg	1.4	22.8 ×10⁻⁶ cm/s
CS(=O)(=O)Nc1ccc(-c2cnn3ccc(NCc4ccncc4)nc23)cc1		1500 nM	0.28		29				
c1cc2c(cc1-c1cnn3ccc(NCCN4CCCCC4)nc13)OCO2		660 nM	5.3		34				
c1cc2c(cc1-c1cnn3ccc(NC4CCNCC4)nc13)OCO2		880 nM	1.2		17				
CC(=O)Nc1ccc(-c2cnn3ccc(NCc4ccncc4)nc23)cc1		6700 nM	2.6		4.4				
NC(=O)c1ccc(-c2cnn3ccc(NCc4ccncc4)nc23)cc1	2.3	20 nM	3.7	0.89	110				
